Source: PMC12510601, “Transcriptomic analysis reveals that pyruvate kinase potentially plays a key role in the differentiation of Spirometra mansoni proglottids by regulating the glycolysis pathway” (PLOS Neglected Tropical Diseases, 2025)

Test system: rSmPK1 (recombinant SmPK1)
Experiment: […],4-dinitrophenylhydrazine pyruvate assay, Michaelis-Menten / Lineweaver-Burk
Type: biochemical, Spirometra mansoni
Details: pH 8.0, 37 °C

For `C=C(OP(=O)(O)O)C(=O)O` [PEP], the Km (varied PEP with ADP) was 1270 µM.
`Nc1ncnc2c1ncn2[C@@H]1O[C@H](COP(=O)(O)OP(=O)(O)O)[C@@H](O)[C@H]1O` [ADP] showed a Km (varied ADP with PEP) of 540 µM.
